Reference: publication PMC5449454, “Anti-Double-Stranded DNA IgG Participates in Renal Fibrosis through Suppressing the Suppressor of Cytokine Signaling 1 Signals” (Frontiers in Immunology, 2017)
Where no end group is shown, it is not given here.

Legend:
KIR peptide (SOCS1) = target: T1, KIR peptide (SOCS1) (Mus musculus, UniProt O35716); assay: Surface plasmon resonance, JAK2 loop peptide over immobilized biotinylated KIR peptide; type: binding; conditions: SPR, JAK2 loop peptide 0–250 nM
T1 construct: The KIR of SOCS1 was synthesized as a 16-mer peptide (2.09 kDa); purchased Sangon Biotech Company (Shanghai, China); host or cells: chemical synthesis
Procedure: The Biacore 3000 instrument (Biacore, Piscataway, NJ, USA) was used for the quantitation of binding affinities ([8], [35]). For anti-dsDNA IgG binding to KIR peptide, anti-dsDNA IgG (10 nM in MES buffer) was immobilized on a CM sensor chip (GE Healthcare, Port Washington, NY, USA), and then KIR peptide (0–250 nM in HEPES buffer) was run on chip. For JAK2 loop peptide binding to KIR peptide, the biotinylated KIR peptide (5 nM) was immobilized on streptavidin-coated sensor chip, followed by injection of JAK2 loop peptide (0–250 nM). A simple Langmuir model (A + B ↔ AB) was used for calculating binding kinetics.

anti-dsDNA IgG = assay: MALDI-TOF MS, catalysis of peptide by anti-dsDNA IgG; design: species or system murine; conditions: peptide 2 µg/ml with IgG (molar ratio = 1:5), 37°C, 30 min, triplicate
Procedure: Matrix-assisted laser desorption/ionization–time of flight mass spectrometry was performed for identifying the sequences of peptide fragments. As described previously ([36]), an ABI 4800 Analyzer (AB Science, Foster City, CA, USA) was used for such analysis. The ALW (L-form or D-form) and KIR peptides (2 µg/ml) were mixed with anti-dsDNA IgG or control IgG (molar ratio = 1:5), respectively. The mixtures were incubated at 37°C for 30 min. Then, these samples were diluted in distilled water (1:100) and then mixed with the α-cyano-4-hydroxycinnamic acid matrix at a ratio of 1:1. Samples in triplicate were then loaded to the MALDI target. Mass spectrum was produced on 80 individual spectra of each spot.

MRL/lpr mice = conditions: ref [28]; cited from earlier work
Text: The JAK2/STAT1 pathway mediates the renal damage in lupus models induced by anti-dsDNA antibodies. […] Moreover, STAT1 deficiency in the lupus-like chronic graft-versus-host disease model led to a prolonged but amplified increase of anti-dsDNA IgG in sera and also higher proteinuria and mortality ([29]). This phenomenon might be du ...

[1] = target: T2, biotinylated SOCS1 kinase inhibitory region (KIR) peptide (also: biotinylated (position not given here)); assay: ELISA; inhibition ELISA; biotinylated KIR peptide (5 µg/ml) on streptavidin-coated 96-well plates; FITC-labeled JAK2 loop peptide (0.2 µg/ml) pre-incubated with serially diluted anti-dsDNA IgG (0.02 to 20 µg/ml) or control IgG; fluorescein intensity read; conditions: both partners purified
T2 construct: Captured by its biotin on streptavidin-coated sensor chips and plates; An unbiotinylated KIR peptide was run over the immobilised anti-dsDNA IgG only; also called SOCS1-KIR; biotinylated KIR peptide; source: synthetic peptide (Sangon Biotech Company)
T2 peptide: DTHFRTFRSHSDYRRI

[2] = target: T2, biotinylated SOCS1 kinase inhibitory …; assay: SPR; Biacore 3000; biotinylated KIR peptide (5 nM) immobilised on a streptavidin-coated sensor chip, JAK2 loop peptide injected at 0-250 nM; simple Langmuir model (A + B ↔ AB); conditions: both partners purified

## LPQDKEYYKVKEP [JAK2 loop peptide]
KIR peptide (SOCS1); Biacore 3000, biotinylated KIR peptide (5 nM) immobilized on streptavidin chip, simple Langmuir model
  Kd: 44.6 nM
KIR peptide (SOCS1); biotinylated KIR peptide immobilized, Langmuir model, read-out: Ka (association rate)
  kon: 13500 M⁻¹ s⁻¹
KIR peptide (SOCS1); biotinylated KIR peptide immobilized, Langmuir model, read-out: Kd (dissociation rate)
  koff: 0.000603 s⁻¹

## DTHFRTFRSHSDYRRI [KIR peptide]
anti-dsDNA IgG
  catalysis of KIR peptide by anti-dsDNA IgG: almost catalyzed by anti-dsDNA IgG

## N#C/C(=C\c1ccc(O)c(O)c1)C(=O)NCc1ccccc1 [tyrphostin AG490]
MRL/lpr mice
  glomerular deposition of anti-dsDNA IgG: decrease
  phosphorylation of JAK2: significantly inhibited
  phosphorylation of STAT1: significantly inhibited
  proteinuria: decrease
  renal histological lesions: decrease
  serum titer of anti-dsDNA IgG: decrease

B1: FITC-labeled JAK2 loop peptide (peptide)
peptide: LPQDKEYYKVKEP
modifications: also: FITC-labeled (position not given here)
notes: loop region of Janus kinase 2 (JAK2), 13-mer; also called FITC–JAK2 loop; FITC (0.39 kDa)–JAK2 loop; source: synthetic peptide (Sangon Biotech Company)
[1]
  binding result: binds

B2: JAK2 loop peptide (peptide)
peptide: LPQDKEYYKVKEP
notes: loop region of Janus kinase 2 (JAK2), 13-mer, 1.64 kDa; the SPR methods name the 'JAK2 loop peptide' without a label; source: synthetic peptide (Sangon Biotech Company)
[2]
  Kd: 44.6 nM
  koff: 0.000603 s⁻¹
  kon: 13500 M⁻¹ s⁻¹
